How the values were obtained:
[1] = biological target: T1, hP2X3R (Homo sapiens, UniProt P56373); assay: Calcium influx (Fluo-4) evoked by α,β-meATP in HEK293 cells stably expressing hP2X3R; type: cell-based; settings: for IC50: antagonistic activity, HEK293 cells expressing hP2X3R, agonist at EC70; for Decrease of P2X3R antagonistic activity compared with KCB-77033: relative to hit compound KCB-77033
T1 construct: expressed in transfected cells
T1 sequence (P56373 1-397): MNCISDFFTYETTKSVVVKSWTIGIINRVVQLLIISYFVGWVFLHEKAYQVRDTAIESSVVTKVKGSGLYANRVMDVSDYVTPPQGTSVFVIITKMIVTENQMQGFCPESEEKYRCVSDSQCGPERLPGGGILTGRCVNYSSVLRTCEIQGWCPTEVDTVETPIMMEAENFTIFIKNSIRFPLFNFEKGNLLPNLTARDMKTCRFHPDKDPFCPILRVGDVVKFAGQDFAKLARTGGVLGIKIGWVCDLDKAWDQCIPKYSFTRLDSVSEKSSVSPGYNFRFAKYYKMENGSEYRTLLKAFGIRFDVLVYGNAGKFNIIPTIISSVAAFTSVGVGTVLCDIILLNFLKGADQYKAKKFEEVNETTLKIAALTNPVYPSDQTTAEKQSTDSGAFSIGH
Protocol: For the evaluation of P2XR activities, a cell-based assay system was employed to measure the level of fluorescence emission, based on Fluo-4 dye, during Ca^2+ influx evoked by αβmeATP in HEK293 cells stably expressing hP2X2/3R and hP2X3R. The library containing 8364 representative compounds for the screening of antagonistic activity was provided by the Korea Chemical Bank. The antagonistic activities were evaluated in the presence of P2X3R agonist of the concentration for EC70 value (200–250 nM for hP2X3R and 1–4 μM for hP2X2/3R highly expressed cell lines), and AF353 was used as the positive control antagonist for comparison. For the first round of screening, a single concentration (25 μM) of each library compound was tested to identify initial hit compounds, which were subsequently validated using both concentrations of 25 and 10 μM. Using a cut-off threshold of higher than 50% antagonistic activity and after confirming dose-dependency, 12 main hit compounds were selected.
3.4. Cell-Based Assay: Measurement of Calcium Influx by Fluorescence-Based Fluo-4 Dye Uptake in HEK293 Cells Expressing hP2X2/3 and hP2X3 Receptors
Human P2X3-expressing HEK293 cells were grown in DMEM supplemented with 10% fetal bovine serum and 1% antibiotic–antimycotic as a monolayer culture at 37 °C in a humidified atmosphere of 5% CO2. The 96-well black plates used in the experiments were prepared by coating them with 1× poly-D-lysine (A3890401, Thermo-Fisher Scientific Korea, Seoul, South Korea). An aliquot of 40 μL 1× poly-D-lysine was used to treat each of the wells in a flat orientation. After leaving the plates for at least 4 h to absorb the poly-D-lysine, the plates were allowed to dry for at least 6 h. The DMEM used in the culture of HEK293 cells was removed from the dish, followed by application of 3 mL 1× PBS for washing. Removal of 1× PBS was followed by application of 1 mL trypsin/EDTA, and the cells were collected by centrifugation at 1200 rpm for 2 min. The supernatant was removed, and 1 mL fresh DMEM added. The cells were resuspended in media and plates prepared with 4.8 × 10^4 cells/well in 56 μL/well. After 18 h of cell culture in the 96-well black plate, 56 μL of Fluo-4 dye (Fluo-4 Direct^TM Calcium Assay Kit, F10471, Invitrogen, Thermo-Fisher Scientific Korea, Seoul, South Korea) was added to each well, prepared according to the manufacturer’s protocol, and incubated for 50 min~1 h under culturing conditions. Then, 12.4 μL of the appropriate compound solution was added to each well, and the positive control was AF353 (A1612, Sigma Aldrich Korea, Seoul, South Korea) and the negative control was 5% DMSO. Plates were incubated at room temperature and sealed to avoid interference from light for 50 min~1 h. Flexstation 3 and its software provided by Molecular Devices was used for the measurement of fluorescence in real time of treatments using prepared α,β-meATP (M6517, Sigma Aldrich) solution to evoke calcium influx and increased cell membrane potential.
For the analysis of antagonistic activities, all data were calculated by Origin Pro 9.1 software provided by Originlab and the fitting of graphs was proceeded by the growth/sigmoidal and hill1 process within no weights for data selections. For the analysis of the behavioral assessments of pain models, all data are expressed as mean ± SEM. The dose–response data are presented as percentages of the maximum possible effect. Statistical significance was analyzed by independent t-test. The criterion for statistical significance was p < 0.05. The statistical analysis was performed using SPSS 25.0 software (IBM Corp., Armonk, NY, USA).

[2] = Metabolic stability in microsomal fraction, mouse; type: in vitro ADME; settings: mouse; Table 1
[3] = Metabolic stability in microsomal fraction, rat; type: in vitro ADME; settings: Table 1
[4] = Metabolic stability in microsomal fraction, human; type: in vitro ADME; settings: Table 1

| SMILES | IC50 [1] | also measured |
| --- | --- | --- |
| O=C1C(NC2CCN(C(=O)c3ccc(Br)cc3)CC2)=C(Cl)C(=O)c2[nH]c(C(F)(F)F)nc21 [14f, 5-((1-(4-Bromobenzoyl)piperidin-4-yl)amino)-6-chloro-2-(trifluoromethyl)-1H-benzo[d]imidazole-4,7-dione] | 804 ± 91 nM | – |
| O=C1C(Cl)=C(Nc2ccc(F)cc2)C(=O)c2[nH]c(C(F)(F)F)nc21 [11a, 6-Chloro-5-((4-fluorophenyl)amino)-2-(trifluoromethyl)-1H-benzo[d]imidazole-4,7-dione] | 1020 ± 111 nM | Metabolic Stability Mouse (%) [2]: 95.7 ± 17.2%; Metabolic Stability Rat (%) [3]: >99%; Metabolic Stability Human (%) [4]: 81.4 ± 1.9% |
| N#Cc1ccc(C(=O)N2CCC(NC3=C(Cl)C(=O)c4[nH]c(C(F)(F)F)nc4C3=O)CC2)cc1 [14j, 4-(4-((6-Chloro-4,7-dioxo-2-(trifluoromethyl)-4,7-dihydro-1H-benzo[d]imidazol-5-yl)amino)piperidine-1-carbonyl)benzonitrile] | 4440 ± 480 nM | – |
| O=C1C(Nc2ccc(F)c(F)c2)=C(Cl)C(=O)c2[nH]c(C(F)(F)F)nc21 [11c, 6-Chloro-5-((3,4-difluorophenyl)amino)-2-(trifluoromethyl)-1H-benzo[d]imidazole-4,7-dione] | 834 ± 117 nM | – |
| O=C1C(Nc2ccc(F)c(Br)c2)=C(Cl)C(=O)c2[nH]c(C(F)(F)F)nc21 [11i, 5-((3-Bromo-4-fluorophenyl)amino)-6-chloro-2-(trifluoromethyl)-1H-benzo[d]imidazole-4,7-dione] | 1040 ± 221 nM | – |
| O=C1C(Nc2ccc(Br)c(F)c2)=C(Cl)C(=O)c2[nH]c(C(F)(F)F)nc21 [11j, 5-((4-Bromo-3-fluorophenyl)amino)-6-chloro-2-(trifluoromethyl)-1H-benzo[d]imidazole-4,7-dione] | 782 ± 139 nM | – |
| Cc1nc2c([nH]1)C(=O)C(Cl)=C(Nc1ccc(Cl)cc1)C2=O [10b, 6-Chloro-5-((4-chlorophenyl)amino)-2-methyl-1H-benzo[d]imidazole-4,7-dione] | 3720 ± 731 nM | Decrease of P2X3R antagonistic activity compared with KCB-77033 [1]: 4–5 fold |
| O=C1C(NC2CCN(C(=O)c3ccccc3)CC2)=C(Cl)C(=O)c2[nH]c(C(F)(F)F)nc21 [14c, 5-((1-Benzoylpiperidin-4-yl)amino)-6-chloro-2-(trifluoromethyl)-1H-benzo[d]imidazole-4,7-dione] | 864 ± 112 nM | – |
| Cc1nc2c([nH]1)C(=O)C(Cl)=C(Nc1ccc(F)cc1)C2=O [10a, 6-Chloro-5-((4-fluorophenyl)amino)-2-methyl-1H-benzo[d]imidazole-4,7-dione] | 4910 ± 821 nM | Metabolic Stability Mouse (%) [2]: 18.4 ± 2.7%; Metabolic Stability Rat (%) [3]: 26.2 ± 3.4%; Decrease of P2X3R antagonistic activity compared with KCB-77033 [1]: 4–5 fold; Metabolic Stability Human (%) [4]: 43.1 ± 4.7% |
| Cc1nc2c([nH]1)C(=O)C(Cl)=C(Nc1ccc(F)c(F)c1)C2=O [KCB-77033] | 1030 ± 73 nM | Metabolic Stability Mouse (%) [2]: 5.2 ± 1.6%; Metabolic Stability Rat (%) [3]: 3.4 ± 0.1%; Metabolic Stability Human (%) [4]: 9.0 ± 1.5% |
| O=C1C(NC2CCN(C(=O)c3ccc(C(F)(F)F)cc3)CC2)=C(Cl)C(=O)c2[nH]c(C(F)(F)F)nc21 [14k, 6-Chloro-2-(trifluoromethyl)-5-((1-(4-(trifluoromethyl)benzoyl)piperidin-4-yl)amino)-1H-benzo[d]imidazole-4,7-dione] | > 10000 nM | – |
| CCC(=O)N1CCC(NC2=C(Cl)C(=O)c3[nH]c(C(F)(F)F)nc3C2=O)CC1 [14b, 6-Chloro-5-((1-propionylpiperidin-4-yl)amino)-2-(trifluoromethyl)-1H-benzo[d]imidazole-4,7-dione] | 921 ± 117 nM | – |
| COC(=O)N1CCC(NC2=C(Cl)C(=O)c3[nH]c(C(F)(F)F)nc3C2=O)CC1 [14a, Methyl-4-((6-chloro-4,7-dioxo-2-(trifluoromethyl)-4,7-dihydro-1H-benzo[d]imidazol-5-yl)amino)piperidine-1-carboxylate] | 979 ± 104 nM | – |
| O=C1C(Nc2ccc(Cl)c(Cl)c2)=C(Cl)C(=O)c2[nH]c(C(F)(F)F)nc21 [11d, 6-Chloro-5-((3,4-dichlorophenyl)amino)-2-(trifluoromethyl)-1H-benzo[d]imidazole-4,7-dione] | 808 ± 75 nM | – |
| O=C1C(Cl)=C(Nc2ccc(Cl)cc2)C(=O)c2[nH]c(C(F)(F)F)nc21 [11b, 6-Chloro-5-((4-chlorophenyl)amino)-2-(trifluoromethyl)-1H-benzo[d]imidazole-4,7-dione] | 825 ± 70 nM | – |

Second part, led by results:

| IC50 [1] | SMILES | also measured |
| --- | --- | --- |
| 505 ± 51 nM | O=C1C(NC2CCN(C(=O)c3ccc(F)c(Cl)c3)CC2)=C(Cl)C(=O)c2[nH]c(C(F)(F)F)nc21 [14i, 6-Chloro-5-((1-(3-chloro-4-fluorobenzoyl)piperidin-4-yl)amino)-2-(trifluoromethyl)-1H-benzo[d]imidazole-4,7-dione] | – |
| 703 ± 96 nM | O=C1C(Nc2ccc(F)c(Cl)c2)=C(Cl)C(=O)c2[nH]c(C(F)(F)F)nc21 [11f, 6-Chloro-5-((3-chloro-4-fluorophenyl)amino)-2-(trifluoromethyl)-1H-benzo[d]imidazole-4,7-dione] | – |
| 541 ± 103 nM | O=C1C(Nc2ccc(Cl)c(F)c2)=C(Cl)C(=O)c2[nH]c(C(F)(F)F)nc21 [11h, 6-Chloro-5-((4-chloro-3-fluorophenyl)amino)-2-(trifluoromethyl)-1H-benzo[d]imidazole-4,7-dione] | – |
| 577 ± 66 nM | O=C1C(NC2CCN(C(=O)c3ccc(Cl)c(Cl)c3)CC2)=C(Cl)C(=O)c2[nH]c(C(F)(F)F)nc21 [14g, 6-Chloro-5-((1-(3,4-dichlorobenzoyl)piperidin-4-yl)amino)-2-(trifluoromethyl)-1H-benzo[d]imidazole-4,7-dione] | – |
| 450 ± 59 nM | O=C1C(NC2CCN(C(=O)c3ccc(F)cc3)CC2)=C(Cl)C(=O)c2[nH]c(C(F)(F)F)nc21 [14d, 6-Chloro-5-((1-(4-fluorobenzoyl)piperidin-4-yl)amino)-2-(trifluoromethyl)-1H-benzo[d]imidazole-4,7-dione] | – |
| 774 ± 166 nM | O=C1C(Nc2ccc(Cl)cc2I)=C(Cl)C(=O)c2[nH]c(C(F)(F)F)nc21 [11k, 6-Chloro-5-((4-chloro-2-iodophenyl)amino)-2-(trifluoromethyl)-1H-benzo[d]imidazole-4,7-dione] | – |
| 660 ± 113 nM | O=C1C(Nc2ccc(F)cc2Cl)=C(Cl)C(=O)c2[nH]c(C(F)(F)F)nc21 [11e, 6-Chloro-5-((2-chloro-4-fluorophenyl)amino)-2-(trifluoromethyl)-1H-benzo[d]imidazole-4,7-dione] | – |
| 481 ± 20 nM | O=C1C(NC2CCN(C(=O)c3ccc(Cl)cc3)CC2)=C(Cl)C(=O)c2[nH]c(C(F)(F)F)nc21 [14e, 6-Chloro-5-((1-(4-chlorobenzoyl)piperidin-4-yl)amino)-2-(trifluoromethyl)-1H-benzo[d]imidazole-4,7-dione] | – |
| 526 ± 141 nM | O=C1C(Nc2ccc(Cl)cc2F)=C(Cl)C(=O)c2[nH]c(C(F)(F)F)nc21 [11g, 6-Chloro-5-((4-chloro-2-fluorophenyl)amino)-2-(trifluoromethyl)-1H-benzo[d]imidazole-4,7-dione] | – |
